US20250057963A1, “DISCOVERY OF PIPERLONGUMINE AS A NOVEL E3 LIGASE LIGAND” (University of Florida Research Foundation, Incorporated, priority 2021, published 2025)

Assays:
[1] = tested on: MOLT4 cells; assay: Viability (MTS) assay in MOLT4 cells; assay type: cell-based, Human; conditions: 72 h treatment
Protocol: Human T-ALL MOLT4 (Cat. No. CRL-1582), K562 (Cat. No. CCL-243), NCI-H1299 (Cat. No. CRL-5803), NCI-H2228 (Cat. No. CRL-5935), LNCaP (Cat. No. CRL-1740), 22RV1 (Cat. No. CRL-2505), PC3 (Cat. No. CRL-1435), DU145 (Cat. No. HTB-81), and epithelial kidney HEK 293T (293T, Cat. No. ACS-4500) cell lines were recently purchased from American Type Culture Collection (ATCC, Manassas, VA, USA). MOLT4, K562, NCI—H-1299, NCI-H2228, LNCap, and 22RV 1 cell lines were cultured in RPMI 1640 medium (Cat No. 22400-089, Thermo Fisher Scientific, Waltham, MA, USA) supplemented with 10% (v/v) heat-inactivated fetal bovine serum (FBS, Cat. No. S11150H, Atlanta Biologicals, Flowery Branch, GA, USA), 100 U/mL penicillin and 100 pig/mL streptomycin (Pen-Strep, Cat. No. 15140122, Thermo Fisher Scientific). PC3 cells were cultured in complete F—12K medium (Kaighn's modification of Ham's F-12 medium, Cat. No. 30-2004, ATCC) supplemented with 10% (v/v) heat-inactivated FBS, 100 U/mL penicillin, and 100 μg/mL streptomycin. […]
Viability (MTS) assays in various cancer cells followed the methods described in our previous report (Khan et al., 2019). The data were expressed as average % cell viability and fitted in non-linear regression curves using GraphPad Prism 9 (GraphPad Software, La Jolla, CA, USA).

[2] = tested on: c-Myc and MCl-1; assay: c-Myc and MCL-1 expression in MOLT4 cells (qPCR and immunoblot); assay type: cell-based, Human
Protocol: (§1) Cells were collected and lysed in RIPA lysis buffer (Cat. #BP-115DG, Boston Bio Products, Ashland, MA, USA) supplemented with protease and phosphatase inhibitor cocktails (Cat. #PPC1010, Sigma-Aldrich, St. Louis, MO, USA). Protein samples were made and immunoblotting was performed as described previously (Khan et al., 2019; Lv et al., 2021). Antibodies purchased from Cell Signaling Technologies (CST) and the dilutions are as follows: Biotin (Cat. No. 5571S, 1:1000), PARP (Cat. No. 9542S, 1:1000), c-Myc (Cat. No. 5605S, 1:1000), MCL1 (Cat. No. 5453S, 1:1000), and ALK (Cat. No. 3791S, 1:1000). KEAP1 antibody was purchased from Proteintech (Cat. No. 10503-2-AP, 1:1000). CDK9 antibody was purchased from Santa Cruz (Cat. No. sc-13130, 1:500). V5-tag antibody was purchased from Bethyl (Cat. No. A190-120P, 1:1000). j-actin antibody was purchased from MP Biomedicals (Cat. No. 8691001, 1:20 000).
Total RNA was extracted as mentioned above. Reverse transcription and quantitative PCR (qPCR) was performed as described in our previous study (Lv et al., 2021). Primers used for measuring gene transcriptional level: GAPDH primers (forward 5′-[…]-3′ and reverse 5′-[…]-3′) were described previously (Zhang et al., 2018b). MCL1 primers are forward 5′-[…]-3′ and reverse 5′-[…]-3′; MYC primers are forward 5′-[…]-3′ and reverse 5′-[…]-3′.

[3] = molecular target: T1, CDK9 (Homo sapiens, UniProt P50750); assay: CDK9 degradation in 293T and K562 cells (immunoblot); assay type: cell-based; design: endogenous in cells; host or cells: MOLT4, 293T, K562, NCI-H1299, LNCaP
T1 sequence (P50750 whole entry): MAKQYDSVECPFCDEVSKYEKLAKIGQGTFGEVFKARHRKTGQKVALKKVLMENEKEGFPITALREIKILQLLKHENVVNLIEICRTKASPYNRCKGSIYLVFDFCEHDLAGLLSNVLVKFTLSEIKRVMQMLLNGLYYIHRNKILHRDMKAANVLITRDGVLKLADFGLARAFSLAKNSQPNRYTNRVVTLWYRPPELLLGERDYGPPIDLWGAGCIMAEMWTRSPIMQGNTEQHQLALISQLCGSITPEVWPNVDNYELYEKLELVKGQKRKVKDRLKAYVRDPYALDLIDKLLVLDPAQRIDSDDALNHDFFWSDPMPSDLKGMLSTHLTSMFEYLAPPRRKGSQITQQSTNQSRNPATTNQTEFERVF
Protocol: Human T-ALL MOLT4 (Cat. No. CRL-1582), K562 (Cat. No. CCL-243), NCI-H1299 (Cat. No. CRL-5803), NCI-H2228 (Cat. No. CRL-5935), LNCaP (Cat. No. CRL-1740), 22RV1 (Cat. No. CRL-2505), PC3 (Cat. No. CRL-1435), DU145 (Cat. No. HTB-81), and epithelial kidney HEK 293T (293T, Cat. No. ACS-4500) cell lines were recently purchased from American Type Culture Collection (ATCC, Manassas, VA, USA). MOLT4, K562, NCI—H-1299, NCI-H2228, LNCap, and 22RV 1 cell lines were cultured in RPMI 1640 medium (Cat No. 22400-089, Thermo Fisher Scientific, Waltham, MA, USA) supplemented with 10% (v/v) heat-inactivated fetal bovine serum (FBS, Cat. No. S11150H, Atlanta Biologicals, Flowery Branch, GA, USA), 100 U/mL penicillin and 100 pig/mL streptomycin (Pen-Strep, Cat. No. 15140122, Thermo Fisher Scientific). PC3 cells were cultured in complete F—12K medium (Kaighn's modification of Ham's F-12 medium, Cat. No. 30-2004, ATCC) supplemented with 10% (v/v) heat-inactivated FBS, 100 U/mL penicillin, and 100 μg/mL streptomycin. DU145 cells were cultured in complete Eagle's Minimum Essential Medium (EMEM, Cat. No. 30-2003, ATCC) supplemented with 10% (v/v) heat-inactivated FBS, 100 U/mL penicillin, and 100 μg/mL streptomycin. 293T cells were cultured in complete Dulbecco's modified Eagle medium (DMEM, Cat. No. 12430054, Thermo Fisher Scientific) with 10% (v/v) heat-inactivated FBS, 100 U/mL penicillin, and 100 μg/mL streptomycin. All the cell lines were maintained in a humidified incubator at 37° C. and 5% CO2.
Cells were collected and lysed in RIPA lysis buffer (Cat. #BP-115DG, Boston Bio Products, Ashland, MA, USA) supplemented with protease and phosphatase inhibitor cocktails (Cat. #PPC1010, Sigma-Aldrich, St. Louis, MO, USA). Protein samples were made and immunoblotting was performed as described previously (Khan et al., 2019; Lv et al., 2021). […]
Immunoblot data were quantified using the ImageJ (v 1.53a) software from NIH. […]

[4] = molecular target: T1, CDK9; assay: 955-induced CDK9 degradation in H1299 cells after KEAP1, TRIP12 or TRAF6 knockdown/knockout and KEAP1 rescue; assay type: cell-based; design: endogenous in cells; host or cells: MOLT4, 293T, K562, NCI-H1299, LNCaP
Protocol: as §1
To knockout KEAP1, two lentiviral CRISPR knockout plasmids targeting human KEAP1 gene were purchased from Abm (Cat. No. 254911110595). Packaging 293T cells were transfected with KEAP1 single guide RNA (sgRNA) and helper vectors (pMD2.G and psPAX2; Addgene plasmid #12259 and 12260) using Lipofectamine 3000 reagent (Cat. No. L3000015, Thermal Fisher). Medium containing lentiviral particles and 8 µg/mL polybrene (Sigma-Aldrich) was used to infect H1299 cells. Infected cells were selected in medium containing […] puromycin. The sgRNA target sequences are as follows: sg1: […]; sg2: […]. Single clones were selected by serial dilution.
KEAP1-sg1 knockout H1299 (4×10^5) cells were transfected with or without plasmid expressing Halo-KEAP1 (Addgene, a gift from Yimon Aye, plasmid #58240) using Lipofectamine 3000 reagent (Cat. No. L3000015, Thermal Fisher). After 24 h, the cells in each well of 6-well plate were divided into two wells and cultured for additional 16 h.

`COc1cc(/C=C/C(=O)N2CCC=CC2=O)cc(OC)c1OCCN1CCN(C(=O)CN2CCC(C(=O)Nc3ncc(SCc4ncc(C(C)(C)C)o4)s3)CC2)CC1` [compound 955, (E)-N-(5-(((5-(tert-butyl)oxazol-2-yl)methyl)thio)thiazol-2-yl)-1-(2-(4-(2-(2,6-dimethoxy-4-(3-oxo-3-(6-oxo-3,6-dihydropyridin-1(2H)-yl)prop-1-en-1-yl)phenoxy)ethyl)piperazin-1-yl)-2-oxoethyl)piperidine-4-carboxamide] was tested, and the “potency to kill MOLT4 cells compared with SNS-032” value [1] was “more potent to kill MOLT4 cells compared with SNS-032”, the “effectiveness relative to SNS-032 in downregulating c-Myc and MCl-1 (mRNA and protein)” value [2] was about 10 times and the “potency relative to SNS-032 in downregulation of c-Myc and MCl-1 (mRNA and protein)” value [2] was “about 10 fold”. For the same compound, the “dependence of 955-induced CDK9 degradation on the UPS” value ([3]; 293T and K562 cells, MG132, bortezomib, MLN4924 pre-treatment) was “UPS dependent manner”, the “CDK9 degradation in 293T cells” value ([3]; 293T cells, 0.1 μM or 1 μM 955) was “time and dose dependent manner” and the “CDK9 degradation in K562 cells” value ([3]; K562 cells, 0.1 μM 955) was “time and dose dependent manner”. For the same compound, the “955-induced CDK9 degradation after KEAP1 knock down/out (siRNA, CRISPR-Cas9)” value ([4]; H1299 cells) was “blocked after depleting KEAP1”, the “955-induced CDK9 degradation after TRIP12 or TRAF6 siRNA knockdown” value ([4]; H1299 cells, 6 h) was “had no effect” and the “955-induced CDK9 degradation after ectopic Halo-tagged KEAP1 in KEAP1 stable knockout cells” value ([4]; KEAP1-sg1 knockout H1299 cells, 955 for 6 h) was “rescued CDK9 degradation”.
